Patent publication US20260317324A1, “BIFUNCTIONAL COMPOUNDS FOR DEGRADING BRAF VIA UBIQUITIN PROTEOSOME PATHWAY” (Nurix Therapeutics, Inc., priority 2023, published 2026)

How the values were obtained:
Type in all cases: cell-based
[1] = target: T1, BRAF D594G (Homo sapiens, UniProt P15056, D594G); assay: BRAF HiBiT degradation assay, C-terminal HiBiT-tagged BRAF D594G overexpressed in HCT-116 BRAF−/− cells (clone 63), Nano-Glo HiBiT Lytic assay; details: BRAF D594G; for DC50: DC50 at 50%: fitted conc. at Y=50; for Dmax: HCT-116, percentage protein degraded at maximal compound effect relative to DMSO
T1 construct: Horizon Discovery (HCT-116 BRAF−/− cells); host or cells: HCT-116 BRAF−/− cells, clone 63, lentiviral transduction
T1 sequence (P15056 whole entry D594G): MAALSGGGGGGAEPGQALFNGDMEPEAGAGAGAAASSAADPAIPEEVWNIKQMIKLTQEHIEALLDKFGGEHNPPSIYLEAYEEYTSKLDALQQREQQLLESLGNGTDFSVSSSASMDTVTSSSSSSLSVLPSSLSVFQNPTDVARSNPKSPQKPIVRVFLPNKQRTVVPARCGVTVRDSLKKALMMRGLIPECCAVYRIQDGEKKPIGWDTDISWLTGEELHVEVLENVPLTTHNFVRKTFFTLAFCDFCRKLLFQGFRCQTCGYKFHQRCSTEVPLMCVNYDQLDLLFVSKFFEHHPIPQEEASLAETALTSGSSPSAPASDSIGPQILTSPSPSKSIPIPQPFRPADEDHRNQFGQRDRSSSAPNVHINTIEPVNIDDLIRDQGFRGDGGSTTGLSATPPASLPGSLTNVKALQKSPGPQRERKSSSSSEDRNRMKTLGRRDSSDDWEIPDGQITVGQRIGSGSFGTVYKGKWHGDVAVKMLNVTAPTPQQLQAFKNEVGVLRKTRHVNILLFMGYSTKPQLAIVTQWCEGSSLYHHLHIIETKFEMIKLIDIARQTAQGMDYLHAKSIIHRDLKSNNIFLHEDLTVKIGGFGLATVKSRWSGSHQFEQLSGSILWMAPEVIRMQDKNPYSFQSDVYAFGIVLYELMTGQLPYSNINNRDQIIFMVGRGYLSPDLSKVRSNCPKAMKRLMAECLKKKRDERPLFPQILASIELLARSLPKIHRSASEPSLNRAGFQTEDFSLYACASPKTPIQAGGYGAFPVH
Source text: (§1) An A375 cell line expressing a homozygous V600E mutation was purchased from ATCC (Manassas, VA, USA). An A375 clone 1F10 cell line with an endogenous C-terminal HiBiT fusion tag on BRAF V600E allele was generated internally using CRISPR-Cas9 technology and cultured in DMEM, high glucose supplemented with 10% FBS and 1× GlutaMAX. A HCT-116 BRAF−/− cell line overexpressing the C-terminal HiBiT-tagged G466V, G469A, and D594G mutants were generated by lentiviral transduction, externally at Biosettia Inc (San Diego, CA, USA). The stably transfected cells were cultured in RPMI media supplemented with 10% FBS, 1× GlutaMAX, and 0.25 μg/ml puromycin. DMEM medium, RPMI 1640 medium, GlutaMAX, fetal bovine serum (FBS), and puromycin were purchased from Gibco (Grand Island, NY, USA). HCT-116 BRAF−/− cells were purchased from Horizon Discovery (Waterbeach, UK).
(§2) The C-terminal HiBiT tagged mutant BRAF G466V, G469A, and D594G overexpressed in HCT-116 BRAF−/− cells (monoclonal cell line, cell clones 8, 34, and 63, respectively) were seeded at the density of 3,000 cells/well in 30 μL media (RPMI supplemented with 10% FBS and 1× GlutaMAX) in white opaque 384-well plates (Corning #3570) from column 1 to column 23. Wildtype HCT-116 BRAF cells were seeded in column 24 at the same cell density in 30 μL media. Cells were incubated at 37° C. with 5% CO2 for 24 h.
(§3) Intermediate compound dilution series (5-point, ranging from 5 mM to 0.5 μM, 10-fold dilutions in DMSO) were prepared in a source plate (Beckman Coulter cat. no. 001-16128). Final compound dilution series (11-point, ranging from 1 μM to 0.01 nM, half-log dilutions in DMSO) were stamped into the assay plate (Corning #3570, column 1-11 and 12-22) using the Echo Acoustic Liquid Handler (Beckman Coulter). Each compound was plated in duplicate, and the total volume of compound DMSO solution was 60 nL/well (0.2% final DMSO concentration). DMSO was included in wells A23-L23 and A24-L24. The DMSO-treated HiBiT-tagged samples served as Negative Control (NC) and the DMSO-treated wildtype samples served as Background Control (BC) for the HiBiT assay.
(§4) HiBiT signal was measured by a Nano-Glo HiBiT Lytic assay (Promega cat. no. N3050). HiBiT lytic detection reagent (Nano-Glo HiBiT Lytic Buffer with 1:50 Nano-Glo HiBiT Lytic Substrate and 1:100 LgBiT Protein, 40 μL) was added using Bravo. The mixture was incubated at room temperature, in the dark, and with gentle shaking for 10 min. Luminesce units (LU) were read on an EnVision plate reader 2105 (Perkin Elmer).
(§5) Percent protein remaining and viability remaining per sample were calculated as follows: […]
(§6) % Protein remaining values were plotted as a function of compound concentration. XC50 (DC50) values were determined by fitting curves using the following equation:
(§7) For the HiBiT degradation assay, the key parameters reported include: • The dose of compound that produces 50% degradation (DC50 at 50%): • DC50 at 50%: the Fitted X value (Conc.) at Y=50 (response) • Observed Dmax (Obs. Dmax) is the percentage protein degraded at maximal compound effect relative to DMSO-treated control: […]

[2] = target: T2, BRAF G469A (Homo sapiens, UniProt P15056, G469A); assay: BRAF HiBiT degradation assay, C-terminal HiBiT-tagged BRAF G469A overexpressed in HCT-116 BRAF−/− cells (clone 34), Nano-Glo HiBiT Lytic assay; details: Class 2, BRAF G469A; for DC50: DC50 at 50%: fitted conc. at Y=50; for Dmax: HCT-116, percentage protein degraded at maximal compound effect relative to DMSO
T2 construct: Horizon Discovery (HCT-116 BRAF−/− cells); host or cells: HCT-116 BRAF−/− cells, clone 34, lentiviral transduction
T2 sequence (P15056 whole entry G469A): as the sequence (P15056 whole entry D594G) above, with G469A, G594D counted along it
Source text: as §1, §2, §3, §4, §5, §6, §7

[3] = target: T3, BRAF G466V (Homo sapiens, UniProt P15056, G466V); assay: BRAF HiBiT degradation assay, C-terminal HiBiT-tagged BRAF G466V overexpressed in HCT-116 BRAF−/− cells (clone 8), Nano-Glo HiBiT Lytic assay; details: BRAF G466V; for DC50: DC50 at 50%: fitted conc. at Y=50; for Dmax: HCT-116, percentage protein degraded at maximal compound effect relative to DMSO
T3 construct: Horizon Discovery (HCT-116 BRAF−/− cells); host or cells: HCT-116 BRAF−/− cells, clone 8, lentiviral transduction
T3 sequence (P15056 whole entry G466V): as the sequence (P15056 whole entry D594G) above, with G466V, G594D counted along it
Source text: as §1, §2, §3, §4, §5, §6, §7

[4] = target: T4, BRAF V600E (Homo sapiens, UniProt P15056, V600E); assay: BRAF HiBiT degradation assay, C-terminal HiBiT-tagged BRAF V600E A375 cells (clone 1F10), Nano-Glo HiBiT Lytic assay; details: for Dmax: A-375
T4 construct: endogenous C-terminal HiBiT fusion tag on BRAF V600E allele; endogenous in cells; host or cells: A375 clone 1F10 (CRISPR-Cas9 knock-in of the HiBiT tag; parental A375 from ATCC)
T4 sequence (P15056 whole entry V600E, the tested form may be a part): as the sequence (P15056 whole entry D594G) above, with G594D, V600E counted along it
Summary of the method: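 Endogenous BRAF V600E-HiBiT A375 (1F10), 10,000 cells/well, 24 h preculture; cpd 11-pt, 1 μM–0.01 nM half-log, n=2, 0.2% DMSO; HiBiT lytic detection 10 min RT; DC50 = fitted conc at Y=50; Obs. Dmax vs DMSO.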

[5] = A375 (BRAF V600E), DC50 at 50%: fitted conc. at Y=50
[6] = A375 (BRAF V600E), percentage protein degraded at maximal compound effect relative to DMSO

DC50 [1] | Dmax [1] | DC50 [2] | Dmax [2] | DC50 [3] | Dmax [3] | DC50 [4, 5] | Dmax [4, 6] | DC50 ([4]; A375 (BRAF V600E, Class 1), DC50 at 50% degradation) | Dmax ([4]; A375 (BRAF V600E, Class 1), observed Dmax, % protein degraded relative to DMSO control) | SMILES
> 500 nM | 30 to 70% | > 500 nM | < 30% | > 500 nM | 30 to 70% | 10 to 50 nM | > 70% |  |  | CCCS(=O)(=O)Nc1cccc(-c2nc(C(C)(C)C)sc2-c2ccnc(Nc3cccc(OC4CCN(CC[C@H]5CCN(c6ccc(C7CCC(=O)NC7=O)cn6)C5)CC4)c3)n2)c1F (mixture of isomers) [Compound 69, N-(3-{2-tert-butyl-5-[2-({3-[(1-{2-[(3S)-1-{5-[(3RS)-2,6-dioxopiperidin-3-yl]pyridin-2-yl}pyrrolidin-3-yl]ethyl}piperidin-4-yl)oxy]phenyl}amino)pyrimidin-4-yl]-1,3-thiazol-4-yl}-2-fluorophenyl)propane-1-sulfonamide]
> 500 nM | 30 to 70% | > 500 nM | < 30% | > 500 nM | < 30% | 50 to 500 nM | 30 to 70% |  |  | CCCS(=O)(=O)Nc1cccc(-c2nc(C(C)(C)C)sc2-c2ccnc(Nc3cccc(OC4CCN(CC[C@@H]5CCN(c6ccc(C7CCC(=O)NC7=O)cn6)C5)CC4)c3)n2)c1F (mixture of isomers) [Compound 70, N-(3-{2-tert-butyl-5-[2-({3-[(1-{2-[(3R)-1-{5-[(3RS)-2,6-dioxopiperidin-3-yl]pyridin-2-yl}pyrrolidin-3-yl]ethyl}piperidin-4-yl)oxy]phenyl}amino)pyrimidin-4-yl]-1,3-thiazol-4-yl}-2-fluorophenyl)propane-1-sulfonamide]
> 500 nM | < 30% | > 500 nM | < 30% | > 500 nM | < 30% | 10 to 50 nM | > 70% |  |  | CCCS(=O)(=O)Nc1cccc(-c2nc(C(C)(C)C)sc2-c2ccnc(Nc3cccc(C4CCN(CC[C@@H]5CCN(c6ccc(C7CCC(=O)NC7=O)cn6)C5)CC4)c3)n2)c1F (mixture of isomers) [Compound 75, N-{3-[2-tert-butyl-5-(2-{[3-(1-{2-[(3R)-1-{5-[(3RS)-2,6-dioxopiperidin-3-yl]pyridin-2-yl}pyrrolidin-3-yl]ethyl}piperidin-4-yl)phenyl]amino}pyrimidin-4-yl)-1,3-thiazol-4-yl]-2-fluorophenyl}propane-1-sulfonamide]
> 500 nM | 30 to 70% | > 500 nM | < 30% | > 500 nM | < 30% | 10 to 50 nM | 30 to 70% |  |  | CCCS(=O)(=O)Nc1cccc(-c2nc(C(C)(C)C)sc2-c2ccnc(Nc3cnn(C4CCN(CC[C@H]5CCN(c6ccc(C7CCC(=O)NC7=O)cn6)C5)CC4)c3)n2)c1F (mixture of isomers) [Compound 77, N-{3-[2-tert-butyl-5-(2-{[1-(1-{2-[(3S)-1-{5-[(3RS)-2,6-dioxopiperidin-3-yl]pyridin-2-yl}pyrrolidin-3-yl]ethyl}piperidin-4-yl)-1H-pyrazol-4-yl]amino}pyrimidin-4-yl)-1,3-thiazol-4-yl]-2-fluorophenyl}propane-1-sulfonamide]
> 500 nM | < 30% | > 500 nM | < 30% | > 500 nM | < 30% | > 500 nM | 30 to 70% |  |  | CCCS(=O)(=O)Nc1cccc(-c2nc(C(C)(C)C)sc2-c2ccnc(Nc3cccc(OC4CCN(C(=O)C[C@@H]5CCN(c6ccc(C7CCC(=O)NC7=O)cc6)C5)CC4)c3)n2)c1F (mixture of isomers) [Compound 92, N-(3-{2-tert-butyl-5-[2-({3-[(1-{2-[(3S)-1-{4-[(3RS)-2,6-dioxopiperidin-3-yl]phenyl}pyrrolidin-3-yl]acetyl}piperidin-4-yl)oxy]phenyl}amino)pyrimidin-4-yl]-1,3-thiazol-4-yl}-2-fluorophenyl)propane-1-sulfonamide]
< 10 nM | 30 to 70% | > 500 nM | 30 to 70% | < 10 nM | 30 to 70% | < 10 nM | > 70% |  |  | CCCS(=O)(=O)Nc1cccc(-c2nc(C(C)(C)C)sc2-c2ccnc(Nc3cccc(OC4CCN(C(=O)[C@@H]5CCN(c6ccc(C7CCC(=O)NC7=O)cn6)C5)CC4)c3)n2)c1F (mixture of isomers) [Compound 94, N-{3-[2-tert-butyl-5-(2-{[3-({1-[(3R)-1-{5-[(3RS)-2,6-dioxopiperidin-3-yl]pyridin-2-yl}pyrrolidine-3-carbonyl]piperidin-4-yl}oxy)phenyl]amino}pyrimidin-4-yl)-1,3-thiazol-4-yl]-2-fluorophenyl}propane-1-sulfonamide]
50 to 500 nM | 30 to 70% | 50 to 500 nM | < 30% | 50 to 500 nM | < 30% | < 10 nM | 30 to 70% |  |  | CCCS(=O)(=O)Nc1cccc(-c2nc(C(C)(C)C)sc2-c2ccnc(Nc3cnn(CC4CCN(C(=O)C[C@H]5CCN(c6ccc(C7CCC(=O)NC7=O)cc6)C5)CC4)c3)n2)c1F (mixture of isomers) [Compound 111, N-(3-{2-tert-butyl-5-[2-({1-[(1-{2-[(3R)-1-{4-[(3RS)-2,6-dioxopiperidin-3-yl]phenyl}pyrrolidin-3-yl]acetyl}piperidin-4-yl)methyl]-1H-pyrazol-4-yl}amino)pyrimidin-4-yl]-1,3-thiazol-4-yl}-2-fluorophenyl)propane-1-sulfonamide]
 |  |  |  |  |  |  |  | < 10 nM | > 70% | O=C1CC[C@H](c2ccc(N3CCC(CN4CCN(c5cnc(-n6cc(-c7cc(F)cc(NS(=O)(=O)N8CCCC8)c7F)c(-c7ccncc7)n6)nc5)CC4)CC3)cc2)C(=O)N1 [Compound 342, N-{3-[1-(5-{4-[(1-{4-[(3R)-2,6-dioxopiperidin-3-yl]phenyl}piperidin-4-yl)methyl]piperazin-1-yl}pyrimidin-2-yl)-3-(pyridin-4-yl)-1H-pyrazol-4-yl]-2,5-difluorophenyl}pyrrolidine-1-sulfonamide]
